# Patent US8591761B2, “Apparatus including hydrofluoroether with high temperature stability and uses thereof” (3M Innovative Properties Company, priority 2009, dated 2013)
# Read-outs that look alike come from different tables or passages of the source.
# Legend:
# [1] = format: physicochemical; settings: for stability of the HFE to temperature (conclusion from ketone concentration): heated at 150° C. for 8 days
# Method: Stability testing was carried out by heating of the various samples in clean, PYREX glass round bottom flasks at the temperatures noted below.
# The stability of H(CF2CF2)3CH2OCF2CFHCF3 was tested by placing a portion of the ether, prepared essentially as described in Example 1 and treated with both HF and potassium permanganate, (˜100 g) into a new PYREX glass flask containing a reflux condenser under nitrogen and heating to 150° C. for 36 days. Samples of the liquid were taken at 7, 14, 26 and 36 day time intervals and the composition was monitored by GC/MS for breakdown products of the parent molecule. […] The compositional analysis (GC/MS and GC-FID) verified this conclusion. After this heating period, the sample was then heated to 180° C. for an additional 14 days.
# The stability of H(CF2CF2)3CH2OCF2CFHOCF3 was tested by placing a portion of the ether, prepared as described above, (75 g) into a flask containing a reflux condenser under nitrogen and heating while stirring magnetically to 175° C. for 15 days. Samples of the liquid were taken at 1, 2, 3, 4, 7, 8, 9, 11 and 15 day time intervals and analyzed by gas chromatography. In addition, the starting material and the material at the end of the heating period were analyzed by GC/MS for breakdown products of the parent molecule.
# Stability testing in glass was carried out by placing about 100 g of the ether in a 500 ml, round bottom flask equipped with a water condenser and heated with magnetic stirring to 150° C. for seven days. Samples of the liquid were taken on days 1, 2, 3, 4, and 7 and analyzed by gas chromatography, HF gas probe, and pH paper. After one day, the pH had dropped from the initial value neutral value of 7 to 5 and remained at that level the remainder of the test.
# 50 grams of the hydrofluoroether was charged to a 50 mL round bottom flask. The material was heated at 150° C. for 8 days with samples taken at day 1, 2, 3, 6, and 8. The primary breakdown product from the parent molecule that was monitored was the ketone intermediate, C3F7OCF(CF3)CF2OCF(CF3)C(O)CF2CF3. This was monitored using GC-FID.
# 50 grams of the hydrofluoroether was charged to a 50 mL round bottom flask. The material was heated at 150° C. for 8 days with samples taken at day 1, 2, 5, 7, and 8. The primary breakdown product from the parent molecule that was monitored was the ketone intermediate, C3F7OCF(CF3)CF2OCF(CF3)C(O)CF2CF3. This was monitored using GC-FID.
# 50 g of the hydrofluoroether was charged to a 50 mL round bottom flask. The material was heated at 150° C. for 7 days with samples taken at days 3, 5, and 7 days. The primary breakdown products from the parent molecule that were monitored was vinyl ether, C4F9OCF(CF3)CF2OCF═CF2 and the hydride C4F9OCF(CF3)CF2OCFHCF3. These were monitored using GC-FID.
# 50 g of the hydrofluoroether was charged to a 50 mL round bottom flask. […] The primary breakdown products from the parent molecule that were monitored was vinyl ether, C3F7(OCF(CF3)CF2)2OCF═CF2 and the hydride C3F7(OCF(CF3)CF2)2OCF═HCF3. These were monitored using GC-FID.
# [2] = format: physicochemical; settings: for breakdown product diketone (CF3)2CFCOC2F4COCF(CF3)2: other studies; for appearance of the metal parts of the chiller: over the lifetime of the test; for changes in the composition of the circulating fluid (NMR, GC/MS): circulated through closed stainless steel loop at 150° C. for 28 days
# Method: The long term stability of HC6F12CH2OCF2CFHCF3 in a commercial chiller unit was tested. The chiller used for this test was a Lydall Affinity Chiller, model PWL-003 KBE48CBC3 with an operating range of 10° C. to 200° C. HC6F12CH2OCF2CFHCF3 was circulated through a closed stainless steel loop at 150° C. for 28 days. During this time the chiller operated continuously except for short periods for taking samples in which the fluid was cooled to room temperature before the sample was removed. […] The composition of the circulating fluid was analyzed by GC/MS periodically (on days 1, 3, 6, 13, 20, and 28) to determine whether any changes in the fluid had occurred. Fluorine NMR analysis of the fluid before the testing and after completion of the testing was also carried out. […] A very small level of HF (1.4 ppm) was observed initially and this value decreased to 0 ppm by day 13. HF was also monitored in the liquid phase by titration and never exceeded a value of 0.52 ppm.
# A comparative hydrofluoroether 2,3,3,4,4-pentafluoro-2,5-bis(perfluoropropan-2-yl)-5-ethoxytetrahydrofuran (II) was also tested multiple times in this same system under the same conditions. The composition of this fluid was monitored periodically over about thirty days for composition changes from the input material. […] HF was also monitored in the liquid phase by titration and ranged between 0.34 and 0.36 ppm. […] Depending on the study this corrosion varied between quite marked with the formation of black or greenish deposits to less obvious but still showing significant signs of a corrosive agent derived from the fluid. This corrosion as well as the formation of the diketone breakdown product rendered this material unacceptable for use in such a high temperature heat transfer application.
# Furthermore, the heat transfer fluid that includes the hydrofluoroether compound from Example 1 was tested for long term stability in a commercial chiller unit as described in Example 3. […] As a comparison, the compound from Comparative Example 1 was put through the same test.
smiles,measurement,setting,value
"CCOC1(C(F)(C(F)(F)F)C(F)(F)F)OC(F)(C(F)(C(F)(F)F)C(F)(F)F)C(F)(F)C1(F)F (centres unmarked) [Comparative Example 1, 2,3,3,4,4-pentafluoro-2,5-bis(perfluoropropan-2-yl)-5-ethoxytetrahydrofuran]",ppm F (HF levels in the liquid phase),"[1]; 150° C., Day 0",<0.1 ppm
same,ppm F (HF levels in the liquid phase),"[1]; 150° C., Day 1",1.0 ppm
same,ppm F (HF levels in the liquid phase),"[1]; 150° C., Day 2",1.8 ppm
same,ppm F (HF levels in the liquid phase),"[1]; 150° C., Day 3",2.6 ppm
same,ppm F (HF levels in the liquid phase),"[1]; 150° C., Day 4",3.2 ppm
same,ppm F (HF levels in the liquid phase),"[1]; 150° C., Day 7",3.9 ppm
same,pH (pH paper),"[1]; 150° C., after one day, remained at that level the remainder of the test",5
same,HF level in the headspace (PortaSens probe),"[1]; 150° C., day 3, maximum level which the probe could detect, did not change for remainder of test",27 ppm
same,decomposition product diketone (CF3)2CFCOC2F4COCF(CF3)2 level,"[1]; 150° C., day 7",1648 ppm
same,pH (pH paper),"[1]; initial value, before heating",7
same,stability of the parent molecule (conclusion from diketone formation),[2],not stable
same,breakdown product diketone (CF3)2CFCOC2F4COCF(CF3)2,"[2]; 150° C., at 7 days",472 ppm
same,breakdown product diketone (CF3)2CFCOC2F4COCF(CF3)2,"[2]; 150° C., at 28 days",195 ppm
same,appearance of the metal parts of the chiller,[2]; 150° C.,considerable corrosion
same,appearance of the metal parts of the chiller,"[2]; 150° C., listed as II",noticeable corrosion
"CCOC(F)(C(F)(F)C(F)(F)F)C(F)(OC(F)(F)C(F)(OC(F)(F)C(F)(F)C(F)(F)F)C(F)(F)F)C(F)(F)F (centres unmarked) [Comparative Example 2, 3-ethoxy-1,1,1,2,2,3,4,5,5,5-decafluoro-4-(1,1,2,3,3,3-hexafluoro-2-heptafluoropropyloxypropoxy)pentane]","ppm Ketone (breakdown product C3F7OCF(CF3)CF2OCF(CF3)C(O)CF2CF3, GC-FID)","[1]; 150° C., Day 1",140 ppm
same,"ppm Ketone (breakdown product C3F7OCF(CF3)CF2OCF(CF3)C(O)CF2CF3, GC-FID)","[1]; 150° C., Day 2",300 ppm
same,"ppm Ketone (breakdown product C3F7OCF(CF3)CF2OCF(CF3)C(O)CF2CF3, GC-FID)","[1]; 150° C., Day 3",503 ppm
same,"ppm Ketone (breakdown product C3F7OCF(CF3)CF2OCF(CF3)C(O)CF2CF3, GC-FID)","[1]; 150° C., Day 6",1000 ppm
same,"ppm Ketone (breakdown product C3F7OCF(CF3)CF2OCF(CF3)C(O)CF2CF3, GC-FID)","[1]; 150° C., Day 8",1200 ppm
same,stability of the HFE to temperature (conclusion from ketone concentration),[1],not exceptionally stable
"COC(F)(C(F)(F)C(F)(F)F)C(F)(OC(F)(F)C(F)(OC(F)(F)C(F)(F)C(F)(F)F)C(F)(F)F)C(F)(F)F (centres unmarked) [Comparative Example 3, 3-methoxy-1,1,1,2,2,3,4,5,5,5-decafluoro-4-(1,1,2,3,3,3-hexafluoro-2-heptafluoropropyloxypropoxy)pentane]","ppm Ketone (breakdown product C3F7OCF(CF3)CF2OCF(CF3)C(O)CF2CF3, GC-FID)","[1]; 150° C., Day 1",50 ppm
same,"ppm Ketone (breakdown product C3F7OCF(CF3)CF2OCF(CF3)C(O)CF2CF3, GC-FID)","[1]; 150° C., Day 2",50 ppm
same,"ppm Ketone (breakdown product C3F7OCF(CF3)CF2OCF(CF3)C(O)CF2CF3, GC-FID)","[1]; 150° C., Day 5",50 ppm
same,"ppm Ketone (breakdown product C3F7OCF(CF3)CF2OCF(CF3)C(O)CF2CF3, GC-FID)","[1]; 150° C., Day 7",50 ppm
same,stability of the HFE to temperature (conclusion from ketone concentration),[1],not exceptionally stable
"CCOC(F)(F)C(F)(OC(F)(F)C(F)(OC(F)(F)C(F)(F)C(F)(F)C(F)(F)F)C(F)(F)F)C(F)(F)F (centres unmarked) [Comparative Example 4, 1-(1-{[1-(ethoxydifluoromethyl)-1,2,2,2-tetrafluoroethoxy]-difluoromethyl}-1,2,2,2-tetrafluoroethoxy)-1,1,2,2,3,3,4,4,4-nonafluorobutane]","% Breakdown products (sum of vinyl ether and hydride, GC-FID)","[1]; 150° C., Day 0",0%
same,"% Breakdown products (sum of vinyl ether and hydride, GC-FID)","[1]; 150° C., Day 3",0.18%
same,"% Breakdown products (sum of vinyl ether and hydride, GC-FID)","[1]; 150° C., Day 5",0.32%
same,"% Breakdown products (sum of vinyl ether and hydride, GC-FID)","[1]; 150° C., Day 7",0.49%
"CCOC(F)(F)C(F)(OC(F)(F)C(F)(OC(F)(F)C(F)(OC(F)(F)C(F)(F)C(F)(F)F)C(F)(F)F)C(F)(F)F)C(F)(F)F (centres unmarked) [Comparative Example 5, 1-{1-[(1-{[1-(ethoxydifluoromethyl)-1,2,2,2-tetrafluoroethoxy]difluoro-methyl}-1,2,2,2-tetrafluoroethoxy)difluoromethyl]-1,2,2,2-tetrafluoroethoxy}-1,1,2,2,3,3,3-heptafluoro-propane]","% Breakdown products (sum of vinyl ether and hydride, GC-FID)","[1]; 150° C., Day 0",0%
same,"% Breakdown products (sum of vinyl ether and hydride, GC-FID)","[1]; 150° C., Day 2.75",0.18%
same,"% Breakdown products (sum of vinyl ether and hydride, GC-FID)","[1]; 150° C., Day 4.75",0.38%
same,"% Breakdown products (sum of vinyl ether and hydride, GC-FID)","[1]; 150° C., Day 6.75",0.45%
same,"% Breakdown products (sum of vinyl ether and hydride, GC-FID)","[1]; 150° C., Day 9.75",0.55%
same,"% Breakdown products (sum of vinyl ether and hydride, GC-FID)","[1]; 150° C., Day 18.75",1.59%
"FC(C(F)(F)F)C(F)(F)OCC(F)(F)C(F)(F)C(F)(F)C(F)(F)C(F)(F)C(F)F (centres unmarked) [Example 1, 7-(1,1,2,3,3,3-hexafluoropropoxy)-1,1,2,2,3,3,4,4,5,5,6,6-dodecafluoroheptane]","changes in product purity / breakdown products of the parent molecule (GC/MS, GC-FID)","[1]; PYREX glass flask, reflux condenser, under nitrogen, 150° C. for 36 days",No changes in product purity were observed
same,breakdown products,"[1]; after 36 days at 150° C., heated to 180° C. for an additional 14 days",No breakdown products were observed
same,HF in head space of the flask (PortaSens HF gas detector probe),"[1]; entire 50 day heating period (150° C. 36 days, 180° C. 14 days)",detected no HF
same,HF level in head space of the chiller,"[2]; 150° C., by day 13",0 ppm
same,increase in HF levels in head space of the chiller (PortaSens HF gas detector probe),"[2]; 150° C., entire 28 day heating period",detected no increase in the HF levels
same,HF level in head space of the chiller,"[2]; 150° C., observed initially",1.4 ppm
same,HF in the liquid phase by titration,"[2]; 150° C., over the chiller test (about 28-30 days)",≤ 0.52 ppm
same,appearance of the metal parts of the chiller,[2]; 150° C.,essentially unchanged
same,"changes in the composition of the circulating fluid (NMR, GC/MS)",[2],no significant deterioration
same,"changes in the composition of the circulating fluid (NMR, GC/MS)",[2]; listed as HC6F12CH2OCF2CFHCF3,No changes in the composition of the fluid were observed
"FC(OC(F)(F)F)C(F)(F)OCC(F)(F)C(F)(F)C(F)(F)C(F)(F)C(F)(F)C(F)F (centres unmarked) [Example 2, 1,1,2,2,3,3,4,4,5,5,6,6-dodecafluoro-7-(1,1,2-trifluoro-2-trifluoromethoxyethoxy)heptane]","changes in product purity (gas chromatography, GC/MS)","[1]; flask, reflux condenser, under nitrogen, 175° C. for 15 days",No changes in product purity were observed
